Measured values from ChEMBL document CHEMBL1151133, “Plant metabolites. Structure and in vitro antiviral activity of quinovic acid glycosides from Uncaria tomentosa and Guettarda platypoda” (J Nat Prod, 1989).
Converted amounts (≈) assume the structure as drawn.

Key:
[1] = Cytotoxicity against golden hamster CER cells after 2 days by neutral red uptake assay; assay type: cell-based, Mesocricetus auratus; settings: read-out: TC50
[2] = test system: Vesicular stomatitis Indiana virus; test: Antiviral activity against Vesicular stomatitis Indiana virus infected in golden hamster CER cells assessed as reduction in virus plaque formation after 36 to 48 hrs; assay type: functional
rhinovirus A1B [3] = test: Antiviral activity against HRV1B infected in human HeLa cells assessed as reduction in virus-induced cytopathic effect at 20 ug/ml; assay type: functional, Human rhinovirus 1B; set-up: scale not given: the % may be the effect or the level left
rhinovirus A1B [4] = test: Antiviral activity against HRV1B infected in human HeLa cells assessed as reduction in virus-induced cytopathic effect at 30 ug/ml; assay type: functional, Human rhinovirus 1B; set-up: scale not given: the % may be the effect or the level left
[5] = Cytotoxicity against human HeLa cells assessed as maximum non-toxic drug level after 2 days by neutral red uptake assay; assay type: cell-based; settings: read-out: MNCC

Row | SMILES | CC50 at 48 h [1] | MIC50 [2] | Activity (rhinovirus A1B [3]) | Activity (rhinovirus A1B [4]) | MNTC at 48 h [5]
1 | C[C@H]1[C@H](C)CC[C@]2(C(=O)O)CC[C@]3(C(=O)O[C@@H]4O[C@H](CO)[C@@H](O)[C@H](O)[C@H]4O)C(=CC[C@@H]4[C@@]5(C)CC[C@H](O[C@@H]6O[C@H](CO)[C@@H](O)[C@H](O)[C@H]6O)C(C)(C)[C@@H]5CC[C@]43C)[C@H]12 | 150 µg/mL (≈ 185 µM) | 87 µM (≈ 70.6 µg/mL) |  |  | 
2 | C[C@H]1[C@H](C)CC[C@]2(C(=O)O)CC[C@]3(C(=O)O)C(=CC[C@@H]4[C@@]5(C)CC[C@H](O[C@@H]6O[C@H](C)[C@H](O)[C@H](O[C@@H]7O[C@H](CO)[C@@H](O)[C@H](O)[C@H]7O)[C@H]6O)C(C)(C)[C@@H]5CC[C@]43C)[C@H]12 | 100 µg/mL (≈ 126 µM) | 25 µM (≈ 19.9 µg/mL) |  |  | 
3 | C[C@H]1[C@H](C)CC[C@]2(C(=O)O[C@@H]3O[C@H](CO)[C@@H](O)[C@H](O)[C@H]3O)CC[C@]3(C(=O)O)C(=CC[C@@H]4[C@@]5(C)CC[C@H](O[C@@H]6O[C@H](C)[C@H](O)[C@H](O[C@@H]7O[C@H](CO)[C@@H](O)[C@H](O)[C@H]7O)[C@H]6O)C(C)(C)[C@@H]5CC[C@]43C)[C@H]12 | 80 µg/mL (≈ 83.6 µM) | 42 µM (≈ 40.2 µg/mL) |  |  | 
4 | C[C@H]1[C@H](C)CC[C@]2(C(=O)O[C@@H]3O[C@H](CO)[C@@H](O)[C@H](O)[C@H]3O)CC[C@]3(C(=O)O)C(=CC[C@@H]4[C@@]5(C)CC[C@H](O[C@@H]6O[C@H](C)[C@@H](O)[C@H](O)[C@H]6O)C(C)(C)[C@@H]5CC[C@]43C)[C@H]12 | 80 µg/mL (≈ 101 µM) | 28 µM (≈ 22.3 µg/mL) |  |  | 
5 | C[C@H]1[C@H](C)CC[C@]2(C(=O)O)CC[C@]3(C(=O)O[C@@H]4O[C@H](CO)[C@@H](O)[C@H](O)[C@H]4O)C(=CC[C@@H]4[C@@]5(C)CC[C@H](O[C@@H]6O[C@H](C)[C@H](O)[C@H](O[C@@H]7O[C@H](CO)[C@@H](O)[C@H](O)[C@H]7O)[C@H]6O)C(C)(C)[C@@H]5CC[C@]43C)[C@H]12 | 100 µg/mL (≈ 104 µM) | 63 µM (≈ 60.3 µg/mL) |  |  | 
6 | C[C@H]1[C@H](C)CC[C@]2(C(=O)O[C@@H]3O[C@H](CO)[C@@H](O)[C@H](O)[C@H]3O)CC[C@]3(C(=O)O)C(=CC[C@@H]4[C@@]5(C)CC[C@H](O[C@@H]6O[C@H](CO)[C@@H](O)[C@H](O)[C@H]6O)C(C)(C)[C@@H]5CC[C@]43C)[C@H]12 | 150 µg/mL (≈ 185 µM) | 40 µM (≈ 32.4 µg/mL) | 50% | 50% | 100 µg/mL
7 | C[C@H]1[C@H](C)CC[C@]2(C(=O)O[C@@H]3O[C@H](CO)[C@@H](O)[C@H](O)[C@H]3O)CC[C@]3(C(=O)O)C(=CC[C@@H]4[C@@]5(C)CC[C@H](O[C@@H]6O[C@H](C)[C@H](O)[C@H](O)[C@H]6O)C(C)(C)[C@@H]5CC[C@]43C)[C@H]12 | 80 µg/mL (≈ 101 µM) | 40 µM (≈ 31.8 µg/mL) |  |  | 
8 | C[C@H]1[C@H](C)CC[C@]2(C(=O)O)CC[C@]3(C(=O)O)C(=CC[C@@H]4[C@@]5(C)CC[C@H](O[C@@H]6O[C@H](CO)[C@@H](O)[C@H](O)[C@H]6O)C(C)(C)[C@@H]5CC[C@]43C)[C@H]12 | 150 µg/mL (≈ 231 µM) | 51 µM (≈ 33.1 µg/mL) |  |  | 
